In patent US20140107109A1, “AMINO-DIHYDROTHIAZINE AND AMINO-DIOXIDO DIHYDROTHIAZINE COMPOUNDS AS BETA-SECRETASE ANTAGONISTS AND METHODS OF USE” (Amgen Inc., priority 2012, published 2014):
Like-named read-outs stand apart in the source and are kept apart here.

What was measured:
[1] = test system: Aβ40 in conditioned medium of cells stably expressing Amyloid Precursor Protein (APP); assay: In vitro BACE cell-based assay (HEK cell assay), Aβ40 sandwich ELISA
Procedure, shortened: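 APP-stably expressing cells (40K/well, grown 24 h in DMEM/10% FBS) were treated 24 h with compounds in 10-point dose response starting at 100 μM or 10 μM, 0.1% DMSO final. Secreted Aβ40 was measured by sandwich ELISA (pAb40 capture, biotinylated 6E10 detection, europium time-resolved fluorescence); IC50 from percent inhibition.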

[2] = target: Beta Secretase enzyme (BACE1) (Homo sapiens, UniProt P56817); assay: In vitro enzymatic BACE FRET assay; assay type: biochemical; conditions: read-out: BACE1 FRET assay IC50
Sequence of Beta Secretase enzyme (BACE1) (P56817 46-501): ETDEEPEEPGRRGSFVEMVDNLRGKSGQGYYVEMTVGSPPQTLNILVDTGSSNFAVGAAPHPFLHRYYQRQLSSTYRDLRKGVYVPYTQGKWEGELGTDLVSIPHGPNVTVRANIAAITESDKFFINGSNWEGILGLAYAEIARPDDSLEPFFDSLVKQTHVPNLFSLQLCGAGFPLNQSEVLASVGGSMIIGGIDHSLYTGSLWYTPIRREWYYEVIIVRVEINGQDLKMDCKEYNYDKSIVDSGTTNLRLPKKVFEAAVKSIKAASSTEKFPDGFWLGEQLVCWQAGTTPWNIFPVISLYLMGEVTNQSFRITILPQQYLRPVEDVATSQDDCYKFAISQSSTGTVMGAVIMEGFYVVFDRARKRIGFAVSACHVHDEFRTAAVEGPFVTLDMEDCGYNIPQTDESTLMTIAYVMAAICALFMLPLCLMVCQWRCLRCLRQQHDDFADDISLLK
Procedure, shortened: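 BACE1 cleavage of a 50 nM fluorophore/quencher peptide FRET substrate ran for one hour in 0.05 M acetate pH 4.2, 10% DMSO, 100 uM genapol. Tris buffer raised pH to neutrality to stop the reaction before fluorescence was read (excitation 488 nm, […]).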

[3] = target: T1, Cathepsin D (Cat D) (Homo sapiens, UniProt P07339); assay: In vitro enzymatic Cathepsin D (Cat D) FRET assay; assay type: biochemical; conditions: read-out: CatD IC50
T1 construct: Recombinant Cat D was expressed in CHO cells; made in house; host or cells: CHO cells
T1 sequence (P07339 65-412, species assumed): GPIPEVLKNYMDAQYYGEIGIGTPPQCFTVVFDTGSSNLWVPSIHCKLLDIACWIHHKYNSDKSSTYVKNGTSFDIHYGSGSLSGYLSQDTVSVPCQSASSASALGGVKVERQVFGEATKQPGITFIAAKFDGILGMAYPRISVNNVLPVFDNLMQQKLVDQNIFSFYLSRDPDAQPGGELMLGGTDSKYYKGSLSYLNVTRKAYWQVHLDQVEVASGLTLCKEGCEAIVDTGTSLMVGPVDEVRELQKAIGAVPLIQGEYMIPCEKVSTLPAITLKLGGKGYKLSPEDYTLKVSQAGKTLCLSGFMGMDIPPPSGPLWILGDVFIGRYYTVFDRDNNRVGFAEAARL
Procedure, shortened: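 Recombinant Cat D expressed in CHO cells, used at 9 nM and pre-incubated one hour with serially diluted inhibitor in DMSO. Peptide substrate carries a fluorophore and quencher flanking the cleavage site; reaction stopped with Tris buffer raising pH to neutrality, then fluorescence read.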

[4] = Homo sapiens, HEK293, average IC50, cell assay
[5] = Homo sapiens, HEK293, average IC50, HEK cell assay

IC50 [1, 4] [µM] | IC50 ([2]; average IC50, enzyme assay) [µM] | IC50 [3] [µM] | IC50 [1, 5] [µM] | Compound | further results
> 15.6 | 15.5 | 68.1 |  | CC1(C)C(N)=N[C@](C)(c2cc(Oc3ncc(F)c(C(F)(F)F)c3F)ccc2F)CS1(=O)=O [Example 262, (5R)-5-(5-((3,5-difluoro-4-(trifluoromethyl)-2-pyridinyl)oxy)-2-fluorophenyl)-2,2,5-trimethyl-5,6-dihydro-2H-1,4-thiazin-3-amine 1,1-dioxide] | 
 |  | 28 |  | Cc1cc(Cl)cnc1C(=O)Nc1ccc(F)c([C@@]2(C)N=C(N)C3(CC3)S(=O)(=O)[C@H]2F)c1 [Example 205, N-(3-((5R,6R)-8-amino-5-fluoro-6-methyl-4,4-dioxido-4-thia-7-azaspiro[2.5]oct-7-en-6-yl)-4-fluorophenyl)-5-chloro-3-methylpicolinamide] | IC50 ([1]; Homo sapiens, HEK293): 0.0026 µM; IC50 [2]: 0.00044 µM
0.0135 | 0.00058 | 42.8 |  | C[C@]1(c2cc(Nc3nccc4cc(C#N)cnc34)ccc2F)N=C(N)C2(CCC2)S(=O)(=O)C1F (stereo partly drawn) [Example 251, 8-((3-((7R)-9-amino-6-fluoro-7-methyl-5,5-dioxido-5-thia-8-azaspiro[3.5]non-8-en-7-yl)-4-fluorophenyl)amino)-1,7-naphthyridine-3-carbonitrile] | 
 | 2.57 | 401 | 2.39 | Cc1c(C(F)(F)F)ccnc1Oc1ccc(F)c([C@]2(C)CS(=O)(=O)C(C)(C)C(N)=N2)c1 [Example 311, (5R)-5-(2-fluoro-5-((3-methyl-4-(trifluoromethyl)-2-pyridinyl)oxy)phenyl)-2,2,5-trimethyl-5,6-dihydro-2H-1,4-thiazin-3-amine 1,1-dioxide] | 
0.0141 | 0.00088 | 1120 |  | COc1cnc2c(Nc3ccc(F)c([C@]4(CF)CS(=O)(=O)C(C)(C)C(N)=N4)c3)nccc2n1 [Example 447, N-(3-((3S)-5-amino-3-(fluoromethyl)-6,6-dimethyl-1,1-dioxido-3,6-dihydro-2H-1,4-thiazin-3-yl)-4-fluorophenyl)-2-methoxypyrido[3,4-b]pyrazin-5-amine] | 
1.15 | 1.21 | 331 |  | CC1(C)C(N)=N[C@](C)(c2cc(Oc3ncc(C(F)(F)F)cc3F)ccc2F)CS1(=O)=O [Example 277, (5R)-5-(2-fluoro-5-((3-fluoro-5-(trifluoromethyl)-2-pyridinyl)oxy)phenyl)-2,2,5-trimethyl-5,6-dihydro-2H-1,4-thiazin-3-amine 1,1-dioxide] | 
 | 0.00072 | 387 | 0.0449 | Cc1cc(OC(F)F)cnc1C(=O)Nc1ccc(F)c([C@]2(C)CS(=O)(=O)[C@@](C)(F)C(N)=N2)c1 [Example 321, N-(3-((3R,6R)-5-amino-6-fluoro-3,6-dimethyl-1,1-dioxido-3,6-dihydro-2H-1,4-thiazin-3-yl)-4-fluorophenyl)-5-(difluoromethoxy)-3-methyl-2-pyridinecarboxamide] | 
 | 0.0003 | 283 | 0.0005 | Cc1cc(C#N)cnc1C(=O)Nc1ccc(F)c([C@]2(C)CS(=O)(=O)C(C)(C)C(N)=N2)c1 [Example 355, N-(3-((3R)-5-amino-3,6,6-trimethyl-1,1-dioxido-3,6-dihydro-2H-1,4-thiazin-3-yl)-4-fluorophenyl)-5-cyano-3-methyl-2-pyridinecarboxamide] | 
 | 0.00971 | 309 |  | N-(3-((4aR,7aS)-3-amino-2,2-dimethyl-1,1-dioxido-7,7a-dihydro-2H-furo[3,4-b][1,4]thiazin-4a(5H)-yl)-4-fluorophenyl)-5-methoxy-3-methyl-2-pyridinecarboxamide, N-(3-((4aS,7aR)-3-amino-2,2-dimethyl-1,1-dioxido-7,7a-dihydro-2H-furo[3,4-b][1,4]thiazin-4a(5H)-yl)-4-fluorophenyl)-5-methoxy-3-methyl-2-pyridinecarboxamide [Example 428] | IC50 ([1]; average IC50, cell assay): 0.0373 µM
 | 0.0017 | > 400 | 0.0456 | CC1(C)C(N)=N[C@](CF)(c2cc(NC(=O)c3ccc(F)cn3)ccc2F)CS1(=O)=O [Example 363, N-(3-((3S)-5-amino-3-(fluoromethyl)-6,6-dimethyl-1,1-dioxido-3,6-dihydro-2H-1,4-thiazin-3-yl)-4-fluorophenyl)-5-fluoro-2-pyridinecarboxamide] | 
0.0285 | 0.00055 | 159 |  | COc1cnc2c(Nc3ccc(F)c([C@]4(CF)CS(=O)(=O)C(C)(C)C(N)=N4)c3)ncc(F)c2c1 [Example 159, (S)-5-amino-3-(2-fluoro-5-((5-fluoro-3-methoxy-1,7-naphthyridin-8-yl)amino)phenyl)-3-(fluoromethyl)-6,6-dimethyl-3,6-dihydro-2H-1,4-thiazine 1,1-dioxide] | 
0.0089 | 0.00447 | 65 |  | CC1(C)C(N)=N[C@](C)(c2cc(Nc3ncc(CO)c4cc(Cl)cnc34)ccc2F)CS1(=O)=O [Example 191, (R)-5-amino-3-(5-((3-chloro-5-(hydroxymethyl)-1,7-naphthyridin-8-yl)-amino)-2-fluorophenyl)-3,6,6-trimethyl-3,6-dihydro-2H-1,4-thiazine 1,1-dioxide] | 
 |  | 134 |  | C[C@@]1(c2cc(Nc3nccc4cc(Cl)cnc34)ccc2F)CS(=O)(=O)CC(N)=N1 [Example 57, N-(3-((3R)-5-amino-3-methyl-1,1-dioxido-3,6-dihydro-2H-1,4-thiazin-3-yl)-4-fluorophenyl)-3-chloro-1,7-naphthyridin-8-amine] | IC50 ([1]; Homo sapiens, HEK293, Aβ40, 24 h incubation): 0.019 µM; IC50 [2]: 0.0043 µM
 | 0.00023 | 44.9 | 0.001 | CC#CCOc1cnc(C(=O)Nc2ccc(F)c([C@@]3(C)N=C(N)C(C)(C)S(=O)(=O)C3F)c2)cn1 (stereo partly drawn) [Example 332, N-(3-((3R)-5-amino-2-fluoro-3,6,6-trimethyl-1,1-dioxido-3,6-dihydro-2H-1,4-thiazin-3-yl)-4-fluorophenyl)-5-(2-butyn-1-yloxy)-2-pyrazinecarboxamide] | 
 |  | 419 |  | CC1(C)C(N)=N[C@](C)(c2cc(NC(=O)c3ccc(F)cn3)cnc2F)CS1(=O)=O [Example 399, N-(5-((3R)-5-amino-3,6,6-trimethyl-1,1-dioxido-3,6-dihydro-2H-1,4-thiazin-3-yl)-6-fluoro-3-pyridinyl)-5-fluoro-2-pyridinecarboxamide] | IC50 ([1]; Homo sapiens, HEK293): 0.0393 µM; IC50 [2]: 0.0031 µM

Compound | IC50 [1, 4] [µM] | IC50 ([2]; average IC50, enzyme assay) [µM] | IC50 [3] [µM] | IC50 [1, 5] [µM] | further results
COc1cnc2c(Nc3ccc(F)c([C@@]4(C)N=C(N)C5(CC5)S(=O)(=O)[C@@H]4F)c3)nccc2n1 [Example 209, N-(3-((5S,6R)-8-amino-5-fluoro-6-methyl-4,4-dioxido-4-thia-7-azaspiro[2.5]oct-7-en-6-yl)-4-fluorophenyl)-2-methoxypyrido[3,4-b]pyrazin-5-amine] |  |  | 157 |  | IC50 ([1]; Homo sapiens, HEK293, average IC50, HEK cells): 0.0854 µM; IC50 ([2]; average IC50): 0.0085 µM
CC1(C)C(N)=N[C@](C)(c2cc(NC(=O)c3cnc(C(F)F)cn3)ccc2F)CS1(=O)=O [Example 313, N-(3-((3R)-5-amino-3,6,6-trimethyl-1,1-dioxido-3,6-dihydro-2H-1,4-thiazin-3-yl)-4-fluorophenyl)-5-(difluoromethyl)-2-pyrazinecarboxamide] |  | 0.00292 | 887 | 0.0063 | 
